Data from patent US7384912B2, “Treatment of bone disorders with skeletal anabolic drugs” (Osteotrophin, LLC, priority 2002, dated 2008).
No end group written: not given here.

Columns and labels:
[1] = tested on: adenylate cyclase in SaOS-2 intact cells; experiment: Adenylate cyclase assay in SaOS-2 intact cells; type: cell-based, human; details: 15° C., 60 min
Protocol: Adenylate cyclase-stimulating activity was examined in confluent SAOS-2 cells as previously described for ROS 17/2.8 cells (Merendino et al., Science 231:388-390, (1986)), with the following modification. The intact cell assay was conducted at 15° C., the same conditions employed for binding to intact SaOS-2 cells (vide supra). […] Dose response curves for each peptide were thus generated using 60 min incubations at 15° C. under binding assay conditions.
(§1) Statistical differences were assessed by paired and unpaired two-tailed Student's t test.

[2] = tested on: adenylate cyclase in SaOS-2 membranes; experiment: Adenylate cyclase assay in SaOS-2 cell membranes; type: biochemical, human; details: 30° C., 30 min
Protocol: Therefore, dose response curves for each peptide were generated at 30° C. for 10 min in human kidney and 30° C. for 30 min in SaOS-2 membranes. As with the intact cell adenylate cyclase assays, kidney and bone cell membrane adenlyate cyclase assays were performed under binding assay conditions. Results are expresses as percentage of maximal cAMP stimulation in order to compare peptide dose responses from different experiments.
as §1

[3] = tested on: patients with osteoporosis; details: cited from earlier work; for increase in lumbar spine bone mineral density: two to three years of administration
[4] = biological target: T1, PTH/PTHrP receptors in SaOS-2 membranes (Homo sapiens, UniProt Q03431); experiment: Competition binding of 125I-(Tyr36)hPTHrP-(1-36)NH2 to SaOS-2 membranes; details: 30° C., 60 min
T1 sequence (Q03431 27-593): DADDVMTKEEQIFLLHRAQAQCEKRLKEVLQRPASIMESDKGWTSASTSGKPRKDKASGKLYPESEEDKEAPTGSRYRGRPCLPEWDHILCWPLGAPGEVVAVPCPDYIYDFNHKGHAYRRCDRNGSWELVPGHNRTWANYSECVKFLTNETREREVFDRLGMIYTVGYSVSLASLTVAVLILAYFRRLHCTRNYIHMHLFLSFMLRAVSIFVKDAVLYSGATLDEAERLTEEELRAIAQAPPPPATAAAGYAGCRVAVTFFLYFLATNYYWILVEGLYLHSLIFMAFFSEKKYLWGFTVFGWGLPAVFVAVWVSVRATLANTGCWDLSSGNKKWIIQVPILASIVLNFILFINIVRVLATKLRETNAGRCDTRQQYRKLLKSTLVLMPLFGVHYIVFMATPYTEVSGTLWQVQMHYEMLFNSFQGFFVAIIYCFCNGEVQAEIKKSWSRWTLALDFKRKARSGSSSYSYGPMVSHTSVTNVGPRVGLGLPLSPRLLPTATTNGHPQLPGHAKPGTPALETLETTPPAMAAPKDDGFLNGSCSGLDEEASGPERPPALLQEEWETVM
Protocol: Briefly, postconfluent cells in 150 cm^2 flasks were scraped into membrane buffer [10 mM Tris HCl (pH 7.5), 0.2 mM MgCl2, 0.5 mM EGTA, 1 mM dithiothreitol, leupeptin 45 μg/ml, pepstatin 5 μg/ml, aprotinin 10 KIU/ml, and phenylmethane sulfanyl-fluoride 10 μg/ml] at 0° C. Cell disruption was achieved by sonification and the suspension was centrifuged at 13,000×g for 15 min at 4° C. […] The suspension was layered onto a cushion of the membrane buffer containing 45% sucrose and centrifuged at 70,000×g for 30 min at 4° C. […] Protein concentrations were determined by the method of Lowry using BSA as standard.
The binding assay for SaOS-2 membranes was conducted as for human RCM. Membranes were added to a final concentration of 112.5 μg/ml and specific binding reached equilibrium by 60 min at 30° C.

[5] = biological target: T2, PTH/PTHrP receptors in human renal cortical membranes (RCM) (Homo sapiens, UniProt Q03431); experiment: Competition binding of 125I-(Tyr36)hPTHrP-(1-36)NH2 to human renal cortical membranes; details: human RCM, 30° C., 30 min; read-out: Binding (IC50) Kidney membranes
T2 sequence (Q03431 27-593): T1 sequence (Q03431 27-593)
Protocol: All steps were performed in the presence of the following protease inhibitors: aprotinin [10 Kallikrein inhibitor units (KIU/ml], pepstatin (5 μg/ml), leupeptin (45 μg/ml), and phenylmethanesulfanylfluoride (10 μg/ml). Normal human kidney cortex was from four separate nephrectomy specimens removed for localized transitional cell carcinoma, renal cell carcinoma, or benign cysts. Renal function in all individuals was normal as assessed by serum creatinine and pyelography. Membranes were pooled, aliquoted, and stored at −70° C. for later use.
Human RCM were added to a final concentration of 90 μg/ml. […] The incubation time of 30 min was used for subsequent equilibrium binding competition studies.
as §1

Compound `CCCC[C@H](NC(=O)[C@H](CO)NC(=O)[C@H](CC(N)=O)NC(=O)[C@H](CC(C)C)NC(=O)[C@H](Cc1c[nH]cn1)NC(=O)[C@H](CCCCN)NC(=O)CNC(=O)[C@H](CC(C)C)NC(=O)[C@H](CC(N)=O)NC(=O)[C@H](Cc1c[nH]cn1)NC(=O)[C@H](CCCC)NC(=O)[C@H](CC(C)C)NC(=O)[C@H](CCC(N)=O)NC(=O)[C@@H](NC(=O)[C@H](CCC(=O)O)NC(=O)[C@H](CO)NC(=O)[C@@H](NC(=O)[C@@H](N)CO)C(C)C)[C@@H](C)CC)C(=O)N[C@@H](CCC(=O)O)C(=O)N[C@@H](CCCNC(=N)N)C(=O)N[C@H](C(=O)N[C@@H](CCC(=O)O)C(=O)N[C@@H](Cc1c[nH]c2ccccc12)C(=O)N[C@@H](CC(C)C)C(=O)N[C@@H](CCCNC(=N)N)C(=O)N[C@@H](CCCCN)C(=O)N[C@@H](CCCCN)C(=O)N[C@@H](CC(C)C)C(=O)N[C@@H](CCC(N)=O)C(=O)N[C@@H](CC(=O)O)C(=O)N[C@H](C(=O)N[C@@H](Cc1c[nH]cn1)C(=O)N[C@@H](CC(N)=O)C(=O)N[C@@H](Cc1ccc(O)cc1)C(=O)O)C(C)C)C(C)C` [(Nle^8,18Tyr^34)hPTH-(1-34), (Nle^8,18, Tyr^34)hPTH-(1-34)] has an EC50 [1] of 2.3 ± 0.4 nM and an EC50 [2] of 1.9 ± 0.4 nM.
For `CC(C)C[C@H](NC(=O)[C@H](CCCCN)NC(=O)CNC(=O)[C@H](CC(C)C)NC(=O)[C@@H](NC(=O)[C@@H]1CSSC[C@H](N)C(=O)N[C@@H](CO)C(=O)N[C@@H](CC(N)=O)C(=O)N[C@@H](CC(C)C)C(=O)N[C@@H](CO)C(=O)N[C@@H]([C@@H](C)O)C(=O)N1)C(C)C)C(=O)N[C@@H](CO)C(=O)N[C@@H](CCC(N)=O)C(=O)N[C@@H](CCC(=O)O)C(=O)N[C@@H](CC(C)C)C(=O)N[C@@H](Cc1c[nH]cn1)C(=O)N[C@@H](CCCCN)C(=O)N[C@@H](CC(C)C)C(=O)N[C@@H](CCC(N)=O)C(=O)N[C@H](C(=O)N[C@@H](Cc1ccc(O)cc1)C(=O)N1CCC[C@H]1C(=O)N[C@@H](CCCNC(=N)N)C(=O)N[C@H](C(=O)N[C@@H](CC(N)=O)C(=O)N[C@H](C(=O)NCC(=O)N[C@@H](CO)C(=O)NCC(=O)N[C@H](C(=O)N1CCC[C@H]1C(N)=O)[C@@H](C)O)[C@@H](C)O)[C@@H](C)O)[C@@H](C)O` [calcitonin], the “increase in lumbar spine bone mineral density” value (from here on “increase”) [3] is given as about 2%.
For `[Ca+2]` [calcium], the “increase” value [3] is given as about 2%.
For `O=C(c1ccc(OCCN2CCCCC2)cc1)c1c(-c2ccc(O)cc2)sc2cc(O)ccc12` [raloxifene], the “increase” value [3] is given as about 3%.
Compound “AVSEHQLLHDKGKSIQDLRRRIFLQNLIEGVNTAEY-NH2 [(Tyr^36)cPTHrP-(1-36)NH2, (Tyr^36) chicken (c)PTHrP-(1-36)amide]” has an IC50 [4] of 1.1 ± 0.3 nM and an IC50 [5] of 0.47 ± 0.22 nM.
For PTH(1-84), the “hypercalcemia, serum calcium” value ([3]; doses of approximately 40 micrograms) is listed as “up to 15 mg/dl”.
